Laboratory results taken from US4313943A, “7-Chloro-2,3-dihydro-5-phenyl-1-propargyl-1H-1,4-benzodiazepine-2-one, and a pharmaceutical composition thereof” (priority 1972, dated 1982).
“Also recorded” adds a separate entry of the source.

What was measured:
[1] = Electrogenesis of various subcortical centers; assay type: in vivo; conditions: for EEG activity of the hippocampus: in vivo
Procedure: This study was conducted with test animals weighing between 2.6 and 2.8 kg, following the stereotaxic method of Monnier and Gangloff (Atlas et techniques stereotaxique pour le cerveau du lopin eveille, 1961, Elsevier Pub. Co.), permitting the stimulation of certain subcortical structures as well as a simultaneous detection and recording of their electrical activities, which were compared to that of reference cortical electrodes. In this study, the subcortical centers considered were the caudate nucleus, the dorsal hippocampus, the lateral thalamus, the mesenephalic reticular formation, and the hypothalamic reticular formation. Test compounds 1 and 4 were administered by the intragastric route with an identical dose of 7.5 mg/kg.
Spontaneous activity in the subcortical centers of the unanesthetized animals is characterized by desynchronized activity consisting of high amplitude and relatively slow rhythms (4 to 5 c/sec.), alternating with low amplitude rapid rhythms (12 to 13 c/sec.). Tracings from the hippocampus and caudate nucleus sometimes takes the form of bursts, which is less commonly the case from the thalamus. These may occur at the same time as bursts of rapid spikes arising from the frontal cortex. During periods of arousal, this desynchronized activity is followed by a synchronized theta rhythm (7 to 8 c/sec.) from the hippocampus and caudate nucleus and from the median thalamus, whereas the cortical and reticular electrical activities are transformed into ultra-rapid and low voltage rhythms (30μ volts).

[2] = Cortical and hippocampal arousal thresholds on stimulation of MRF, median thalamus and posterior hypothalamus; assay type: in vivo; conditions: 7.5 mg/kg intragastric
Procedure: The test animals in this study were prepared by the techniques described by Monnier and Gangloff under the preceding study (infra B, page 30). Stimulation consisted of a series of waves delivered at a frequency of 200 c/sec., lasting 0.3 m sec., with a total duration of the stimulus being 5 sec. These shocks were delivered by a Neurovar neurostimulator (Alvar Electronic) coupled with a CRC cathode oscilloscope (type OC 343). Cerebral electrical activity was recorded on a REEGA MINI HUIT electroencephalograph (Alvar Electronic). The test animals were kept in restraint cages in a relatively soundproof room.
The activity of compounds 1 and 4 was tested in a series of six test animals for each compound, with a single dose of 7.5 mg/kg administered by the intragastric route. In each animal, the arousal threshold was determined for two of the three structures tested so that for each compound, each of the three structures stimulated were tested four times.
In making the baseline tracing, the threshold voltage was determined by a finding that the duration of the arousal reaction produced by the 5-second stimulation exceeded the duration of the stimulation by at least 5 seconds, that is, for a minimum of 10 seconds.
The various thresholds were determined every 45 minutes after administration of the compounds, for a total period of four and one-half hours.
The critical value for raising of a threshold was fixed at 0.1 volts. This constituted the maximum variation recorded during 41/2 hours in the control animals.
The results were taken in two forms and then summarized. In the first result, each animal was observed, yielding the values for the thresholds recorded at each time interval as well as the ratios of the values obtained in each of the stimulated structures.

[3] = Potentiation of narcotic effect of Veronal; conditions: in vivo
[4] = Comparative tranquilizing effects: four plates test; assay type: in vivo; conditions: for ED50: 1 h, 60 min. after administration, doses between 0.5 and 4 mg/kg, confidence limits for P = 0.05; for Duration of effect: compounds 1 and 4 compared
Description: The method utilized was the 4 plates test of J. R. Boissier, et al (European J. of Pharm. 1968, Vol. 4, pages 145-151).

[5] = Posterior hypothalamus stimulation

Structure (SMILES) | caudate nucleus spikes ([1]; 7.5 mg/kg intragastric) | duration of slowing of mesencephalic and hypothalamic reticular formation activity ([1]; 7.5 mg/kg intragastric) | thalamic rhythms ([1]; 7.5 mg/kg intragastric) | EEG activity of the hippocampus [1] | effect on arousal pathways (in words) [2] | % of Mean Variation of arousal threshold, Cortex ([2]; MRF stimulation) | % of Mean Variation of arousal threshold, Hippocampus ([2]; MRF stimulation) | % of Mean Variation of arousal threshold, Cortex ([2]; Median Thalamus stimulation) | % of Mean Variation of arousal threshold, Hippocampus ([2]; Median Thalamus stimulation) | % of Mean Variation of arousal threshold, Cortex ([2]; Posterior Hippocampus) | % of Mean Variation of arousal threshold, Hippocampus [2, 5] | narcotic effect of a minimal dose of Veronal [3] | ED50 [4] | Duration of effect [4] | usability of 4 plates test ([4]; over 3 mg/kg) | caudate nucleus bursts of rapid spikes, time of maximum periodicity ([1]; 7.5 mg/kg intragastric) | median anxiolytic dose (AD50) compared with compound 4 ([4]; four-plate study) | anxiolytic effect compared with compound 4 ([4]; in vivo)
C#CCN1C(=O)CN=C(c2ccccc2Cl)c2cc(Cl)ccc21 [Compound 4, 7-chloro-2,3-dihydro-5-(2-chlorophenyl)-1-propargyl-1,H-1,4-benzodiazepine-2-one] | less distinguishable | ≥ 135 min | greater amplitude and lower frequency | slow and of high amplitude; also recorded: increase the amplitude of these activities and also reduce their frequency | substantially raised the cortical and hippocampal arousal thresholds following stimulation of the reticular formation of the brain stem; also recorded: posterior hypothalamus appeared to be little affected; also recorded: moderately reduced in duration | +311% | +308% | +67% | +67% | +56% | +60% | potentiate the narcotic effect of a minimal dose of Veronal | 5.5 mg/kg | comparable | caused motor activity to be so reduced that 4 plates test |  |  | 
C#CCN1C(=O)CN=C(c2ccccc2)c2cc(Cl)ccc21 [Compound 1, 7-chloro-2,3-dihydro-5-phenyl-1-propargyl-1H-1,4-benzodiazepin-2-one] | definite effect of compound 1 on the caudate nucleus |  | greater amplitude and lower frequency | slow and of high amplitude; also recorded: increase the amplitude of these activities and also reduce their frequency | preferentially reduces the excitability of the hypothalamo-cortical and hippocampal pathways; also recorded: moderately reduced in duration | +57% | +50% | +67% | +73% | +83% | +78% | potentiate the narcotic effect of a minimal dose of Veronal | 1.75 mg/kg | comparable |  | 45 min | nearly three times less than that of compound 4 | more effective anxiolytic effect than compound 4
